Structures can show the parent of a compound that is named as a salt.
System: women with severe chronic bladder pain
Assay: Treatment of pelvic pain of bladder origin with dextroamphetamine sulfate (two case reports)
Assay type: in vivo, human
Details: for effect of earlier conventional therapy on bladder pain (patient's claim): before dextroamphetamine sulfate
From the text: Treatment of Pelvic Pain of Bladder Origin with Dextroamphetamine Sulfate.
Two women with severe chronic bladder pain unresponsive to conventional therapy were offered a novel therapy with dextroamphetamine sulfate. In the first patient, the bladder pain started […] in an intermittent manner for six months and then it became daily. The pain was described as a constant feeling of urgency and pain from the urethra to the bladder on walking. They scored an 18 on the pelvic pain and urging/frequency PST. A laparoscopy […] found minimal endometriosis. A cystoscopy was negative as were repeated urine cultures. […] They failed a water load test excreting only 1000 mL urine after standing 4 hours after drinking 1500 mL.
In the second patient, the pain also began intermittently for six months […]. The pain then began occurring daily and was worse with intercourse and for three days premenstrually. The pain was described as a constant feeling of pressure in the bladder with intense pain after urination. Urine cultures were negative and empirical antibiotics provided no relief. They also failed the water load test.
Dextroamphetamine sulfate spansules (10 mg) were given twice daily to the first patient and once daily to the second patient.

[1] = first patient, spansules 10 mg twice daily
[2] = second patient, spansules 10 mg once daily

`CC(C)(C)NC(=O)[C@H]1CC[C@H]2[C@@H]3CC[C@H]4NC(=O)C=C[C@]4(C)[C@H]3CC[C@]12C` [finasteride] was tested, and the “effect of earlier conventional therapy on bladder pain (patient's claim)” value (first patient) was “made it worse”.

`C[C@H](N)Cc1ccccc1` [Dextroamphetamine sulfate, dextroamphetamine sulfate] was tested, and the “symptom status after being weaned off the drug” value (first patient, after 1.5 years on medication) was “remained symptom free for six months”, the bladder pain response [1] was “pain completely disappeared within two days” and the “time pain free while remaining on medication” value [1] was 1.5 years. The “symptoms on interruption and resumption of medication” value (second patient, forgot their pills on a short trip) was “symptoms returned immediately but then disappeared immediately upon resumption of medication”, the bladder pain response [2] was “pain decreased immediately and gradually improved daily for one week when it completely disappeared” and the “time remaining pain free” value [2] was “remained pain free for four months”.

`CCN(CC)CC#CCOC(=O)C(O)(c1ccccc1)C1CCCCC1` (centres unmarked) [ditropan] was tested, and the “effect of earlier conventional therapy on bladder pain (patient's claim)” value (first patient) was “made it worse”.

Source: patent US20060189698A1, “Treatment of interstitial cystitis” (priority 2005, published 2006)
